The values that follow come from the RepoRT retention time repository.

The data set can be described thus: RP, Waters ACQUITY UPLC HSS T3, 0.1 mL/min; A: water + 0.01% formic acid; B: acetonitrile + 0.01% formic acid; gradient (min/%B) 0/10 38/45 45/45 55/0 60/0. The note with it: stereoisomer not certain.
With `CCCCCC=CCC=CC=CC=CC(SCC(N)C(=O)NCC(=O)O)C(O)CCCC(=O)O` (stereo unspecified) [Leukotriene D4], the LC retention time was 33 min. As to `CON(C)C(=O)Nc1ccc(Cl)c(Cl)c1` [Linuron], the LC retention time was 31.7 min. For the compound `CCOC(=O)CC(SP(=S)(OC)OC)C(=O)OCC` (stereo unspecified) [Malathion], the LC retention time came out at 40.8 min. Turning to `COC(=O)c1ccc(CNS(C)(=O)=O)cc1S(=O)(=O)NC(=O)Nc1nc(OC)cc(OC)n1` [Mesosulfuron-methyl], the LC retention time worked out at 26.6 min. To `CS(=O)(=O)c1ccc(C(=O)C2C(=O)CCCC2=O)c([N+](=O)[O-])c1` [Mesotrione] belongs 16.5 min. On to `COCC(=O)N(c1c(C)cccc1C)C(C)C(=O)OC` (stereo unspecified) [Metalaxyl], for which the LC retention time was 24.3 min.

In the case of `Cc1nnc(-c2ccccc2)c(=O)n1N` [Metamitron], the LC retention time came out at 8.55 min. For `Cc1cccc(C)c1N(Cn1cccn1)C(=O)CCl` [Metazachlore], the LC retention time came to 26.6 min.

As for `CNC(=O)N(C)c1nc2ccccc2s1` [Methabenzthiazuron], the LC retention time amounted to 19.4 min. Regarding `COC(=O)c1ccc(O)cc1` [Methylparaben], the LC retention time worked out at 10 min. On to `CON(C)C(=O)Nc1ccc(Br)cc1` [Metobromuron], for which the LC retention time stood at 24.5 min. To `CCc1cccc(C)c1N(C(=O)CCl)C(C)COC` (stereo unspecified) [Metolachlor] belongs 26.7 min.

Consider `COc1cc(OC)n2nc(S(=O)(=O)Nc3c(Cl)ccc(C)c3Cl)nc2n1` [Metosulam], for which the LC retention time was determined as 24.8 min. To `CSc1nnc(C(C)(C)C)c(=O)n1N` [Metribuzine] belongs 15.6 min; to `COC(=O)c1ccccc1S(=O)(=O)NC(=O)Nc1nc(C)nc(OC)n1` [Metsulfuron-methyl], 19.4 min. For the compound `CN1CCC23c4c5ccc(O)c4OC2C(O)C=CC3C1C5` (stereo unspecified) [Morphine], the LC retention time turned out to be 4.26 min. To `COc1cc(OC)nc(NC(=O)NS(=O)(=O)c2ncccc2C(=O)N(C)C)n1` [Nicosulfuron] belongs 15.2 min.

As to `CN1CCCC1c1ccc[n+](C2OC(C(=O)[O-])C(O)C(O)C2O)c1` (stereo unspecified) [Nicotine Glucuronide], the LC retention time came to 1.3 min. For the compound `CN1CCCC1c1cccnc1` (stereo unspecified) [Nicotine], the LC retention time turned out to be 3.37 min. With `CCCN(CCC)c1c([N+](=O)[O-])cc(S(N)(=O)=O)cc1[N+](=O)[O-]` [Oryzalin], the LC retention time is 41.2 min. For `O=C1Nc2ccc(Cl)cc2C(c2ccccc2)=NC1O` (stereo unspecified) [Oxazepam], the LC retention time is 20.6 min.

`COc1ccc(C(=O)c2ccccc2)c(O)c1` [Oxybenzone]: the LC retention time is 40.6 min. In the case of `CC(C)(C)C(O)C(Cc1ccc(Cl)cc1)n1cncn1` (stereo unspecified) [Paclobutrazole], the LC retention time was determined as 31.5 min. To `CC(=O)Nc1ccc(O)cc1` [Paracetamol] belongs 4.98 min; to `Fc1ccc(C2CCNCC2COc2ccc3c(c2)OCO3)cc1` (stereo unspecified) [Paroxetine], 18.3 min. In the case of `O=C(Nc1ccccc1)N(Cc1ccc(Cl)cc1)C1CCCC1` [Pencycuron], the LC retention time worked out at 43.7 min. To `O=C(C=CC=Cc1ccc2c(c1)OCO2)N1CCCCC1` [Piperine] belongs 36.4 min; to `CC(C)(C)C(=O)OCOC(=O)C1N2C(=O)C(N=CN3CCCCCC3)C2SC1(C)C` (stereo unspecified) [Pivmecillinam], 26.4 min. To `CCC(C)C(=O)OC1CC(O)C=C2C=CC(C)C(CCC(O)CC(O)CC(=O)O)C21` (stereo unspecified) [Pravastatin] belongs 20.5 min. To `CC(=O)C1CCC2C3CC=C4CC(O)CCC4(C)C3CCC12C` (stereo unspecified) [Pregnenolone] belongs 41.8 min.

Consider `CCCN(CCOc1c(Cl)cc(Cl)cc1Cl)C(=O)n1ccnc1` [Prochloraz], for which the LC retention time was 38.7 min.

As for `CC(=O)C1(O)CCC2C3CCC4=CC(=O)CCC4(C)C3CCC21C` (stereo unspecified) [Progesterone-17-hydroxy], the LC retention time came to 33.9 min. For the compound `CC(=O)C1CCC2C3CCC4=CC(=O)CCC4(C)C3CCC12C` (stereo unspecified) [Progesterone], the LC retention time is 42.1 min. To `CC(C)N(C(=O)CCl)c1ccccc1` [Propachlore] belongs 25.8 min; to `CCCOC(=O)NCCCN(C)C` [Propamocarb], 5.59 min. For the compound `CCCC1COC(Cn2cncn2)(c2ccc(Cl)cc2Cl)O1` (stereo unspecified) [Propiconazole], the LC retention time came to 41.7 min.

In the case of `CCCOc1nn(C(=O)NS(=O)(=O)c2ccccc2C(=O)OC)c(=O)n1C` [Propoxycarbazone], the LC retention time was found to be 22.1 min. With `CCCOC(=O)c1ccc(O)cc1` [Propylparaben], the LC retention time is 22 min.

`C#CC(C)(C)NC(=O)c1cc(Cl)cc(Cl)c1` [Propyzamide]: the LC retention time was 35.6 min. Take `CCCCCC(O)C=CC1C(=O)CC(O)C1CC=CCCCC(=O)O` (stereo unspecified) [Prostaglandin D2]: the LC retention time is 27.6 min. For the compound `CCCCCC(O)C=CC1C(O)CC(=O)C1CC=CCCCC(=O)O` (stereo unspecified) [Prostaglandin E2], the LC retention time came to 26.5 min. To `CCCCCC(O)C=CC1C(O)CC(O)C1CC=CCCCC(=O)O` (stereo unspecified) [Prostaglandin F2a] belongs 25.6 min; to `COc1nc(C)nc(NC(=O)NS(=O)(=O)c2ccccc2CCC(F)(F)F)n1` [Prosulfuron], 34.5 min.

Take `CC1=NNC(=O)N(N=Cc2cccnc2)C1` [Pymetrozine]: the LC retention time amounted to 26.7 min. Consider `COC(=O)N(OC)c1ccccc1COc1ccn(-c2ccc(Cl)cc2)n1` [Pyraclostrobine], for which the LC retention time is 43.5 min. As for `Cc1cc(C)nc(Nc2ccccc2)n1` [Pyrimethanil], the LC retention time was determined as 22.2 min. To `COc1cc(OC)n2nc(NS(=O)(=O)c3c(C(F)(F)F)ccnc3OC)nc2n1` [Pyroxsulam] belongs 20.3 min. To `Cc1cnc2c(C(=O)O)c(Cl)ccc2c1` [Quinmerac] belongs 8.87 min.

For the compound `O=C(O)c1ccccc1O` [Salicylic acid], the LC retention time stood at 8.4 min. For the compound `CNC1CCC(c2ccc(Cl)c(Cl)c2)c2ccccc21` (stereo unspecified) [Sertraline], the LC retention time came to 24.3 min.

Consider `CCNc1nc(Cl)nc(NCC)n1` [Simazine], for which the LC retention time turned out to be 14.5 min. Regarding `CC1CCC2C(C)C3C(CC4C5CC=C6CC(O)CCC6(C)C5CCC43C)N2C1` (stereo unspecified) [Solanidine], the LC retention time was 24.5 min. To `CS(=O)(=O)c1ccc(C(=O)C2C(=O)CCCC2=O)c(Cl)c1` [Sulcotrione] belongs 18.6 min; to `CC(C)(C)C(O)(CCc1ccc(Cl)cc1)Cn1cncn1` (stereo unspecified) [Tebuconazole], 39.5 min.

As to `CC(C)N(Cc1ccccc1)C(=O)C(C)(C)C` [Tebutame], the LC retention time came out at 39 min. In the case of `CCNc1nc(Cl)nc(NC(C)(C)C)n1` [Terbuthylazine], the LC retention time came to 30.6 min. To `CCNc1nc(NC(C)(C)C)nc(SC)n1` [Terbutryne] belongs 28 min; to `CCNc1nc(NC(C)(C)C)[nH]c(=O)n1` [Tertbutylazine-2-hydroxy], 8.38 min.

On to `CC12CCC(=O)C=C1CCC1C2CCC2(C)C(O)CCC12` (stereo unspecified) [Testosterone], for which the LC retention time came out at 28.9 min. Turning to `N#CN=C1SCCN1Cc1ccc(Cl)nc1` [Thiacloprid], the LC retention time is 12.2 min. `CN1COCN(Cc2cnc(Cl)s2)C1=N[N+](=O)[O-]` [Thiamethoxam]: the LC retention time came out at 6.97 min. As to `CC(C)(C)C(O)C(Oc1ccc(Cl)cc1)n1cncn1` (stereo unspecified) [Triadimenol], the LC retention time worked out at 31.6 min. To `[O-][n+]1nc(-n2ccnc2)nc2ccc(Cl)cc21` [Triazoxide] belongs 16 min. In the case of `O=C(O)COc1nc(Cl)c(Cl)cc1Cl` [Triclopyr], the LC retention time was 25 min. Take `Oc1cc(Cl)ccc1Oc1ccc(Cl)cc1Cl` [Triclosan]: the LC retention time was determined as 43.8 min. To `COC(=O)c1cccc(C)c1S(=O)(=O)NC(=O)Nc1nc(OCC(F)(F)F)nc(N(C)C)n1` [Triflusulfuron-methyl] belongs 39 min; to `CCOC(=O)C1CC(=O)C(=C(O)C2CC2)C(=O)C1` (stereo unspecified) [Trinexapac-ethyl], 26.5 min. Take `CC1(C)CCC(=Cc2ccc(Cl)cc2)C1(O)Cn1cncn1` (stereo unspecified) [Triticonazole]: the LC retention time stood at 33.8 min. Regarding `COc1nc(NC(=O)NS(=O)(=O)c2ccccc2C(F)(F)F)nc(C(F)(F)F)n1` [Tritosulfuron], the LC retention time came to 35.9 min. To `NC(Cc1c[nH]c2ccccc12)C(=O)O` (stereo unspecified) [Tryptophan] belongs 5.4 min. On to `COc1ccc(C(CN(C)C)C2(O)CCCCC2)cc1` (stereo unspecified) [Venlafaxine], for which the LC retention time came to 9.84 min.
